Test results as given in PubChem BioAssay AID256 (DTP/NCI, 2004).
Toxic doses and inconclusive results are not listed. The calls were made as follows: active = survival T/C of 150% or more; inactive = T/C below 125% in these data.

System: CD2F1 mice, L1210 leukemia ip, survival T/C
Assay: NCI In Vivo Anticancer Drug Screen. Data for tumor model L1210 Leukemia (intraperitoneal) in CD2F1 (CDF1) mice
Conditions: endpoint: mean survival time, higher = longer survival
Procedure, shortened: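 Tumor-bearing mice (transplanted tumor) were split into treated and vehicle control groups, and the measured endpoint of each treated group was divided by that of its vehicle controls.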

[1] = dose: 100.0 mg/kg/injection, schedule: Q04DX002 (ip), vehicle: saline with Tween-80
[2] = dose: 200.0 mg/kg/injection, schedule: Q04DX002 (ip), vehicle: saline with Tween-80
[3] = dose: 100.0 mg/kg/injection, schedule: Q04DX003 (ip), vehicle: saline
[4] = dose: 100.0 mg/kg/injection, schedule: Q01DX009 (ip), vehicle: saline with Tween-80
[5] = dose: 200.0 mg/kg/injection, schedule: Q01DX009 (ip), vehicle: saline with Tween-80
[6] = dose: 400.0 mg/kg/injection, schedule: Q01DX009 (ip), vehicle: saline with Tween-80
[7] = dose: 100.0 mg/kg/injection, schedule: Q04DX003 (ip), vehicle: saline with Tween-80
[8] = dose: 200.0 mg/kg/injection, schedule: Q04DX003 (ip), vehicle: saline with Tween-80
[9] = dose: 400.0 mg/kg/injection, schedule: Q04DX003 (ip), vehicle: saline with Tween-80
[10] = dose: 100.0 mg/kg/injection, schedule: Q01DX001 (ip), vehicle: Klucel (hydroxypropylcellulose) (HPC)
[11] = dose: 200.0 mg/kg/injection, schedule: Q01DX001 (ip), vehicle: Klucel (hydroxypropylcellulose) (HPC)
[12] = dose: 400.0 mg/kg/injection, schedule: Q01DX001 (ip), vehicle: Klucel (hydroxypropylcellulose) (HPC)

Measured: T/C

C/C=C/C=C/C(=O)n1nnn(/C=C/C=C/C)c1=O
inactive: dose: 50.0 mg/kg/injection, schedule: Q04DX002 (ip), vehicle: saline with Tween-80 98 % of control | [1] 91 % of control | [2] 95 % of control | dose: 400.0 mg/kg/injection, schedule: Q04DX002 (ip), vehicle: saline with Tween-80 98 % of control

Cl/C=C\C[N+]12CN3CN(CN(C3)C1)C2
inactive: [3] 96 % of control

Cc1cn(C2CC(O)C(COC(=O)Nc3cccc4ccccc34)O2)c(=O)[nH]c1=O (stereo unspecified)
inactive: dose: 12.5 mg/kg/injection, schedule: Q01DX005 (ip), vehicle: other 100 % of control | dose: 25.0 mg/kg/injection, schedule: Q01DX005 (ip), vehicle: other 100 % of control | dose: 50.0 mg/kg/injection, schedule: Q01DX005 (ip), vehicle: other 90 % of control | dose: 100.0 mg/kg/injection, schedule: Q01DX005 (ip), vehicle: other 94 % of control | dose: 200.0 mg/kg/injection, schedule: Q01DX005 (ip), vehicle: other 94 % of control

CCOC(=O)c1cccc2ncccc12
inactive: dose: 75.0 mg/kg/injection, schedule: Q04DX003 (ip), vehicle: saline 101 % of control | dose: 150.0 mg/kg/injection, schedule: Q04DX003 (ip), vehicle: saline 93 % of control | dose: 300.0 mg/kg/injection, schedule: Q04DX003 (ip), vehicle: saline 97 % of control

c1ccc2c(c1)NCCN2
inactive: dose: 25.0 mg/kg/injection, schedule: Q01DX001 (ip), vehicle: saline + alcohol 100 % of control | dose: 50.0 mg/kg/injection, schedule: Q01DX001 (ip), vehicle: saline + alcohol 100 % of control | dose: 100.0 mg/kg/injection, schedule: Q01DX001 (ip), vehicle: saline + alcohol 106 % of control

Cn1c(=O)c2c(nc(N3CCOCC3)n2CCCNCC(O)c2ccc(O)c(O)c2)n(C)c1=O (stereo unspecified)
inactive: dose: 12.5 mg/kg/injection, schedule: Q01DX005 (ip), vehicle: water 102 % of control | dose: 25.0 mg/kg/injection, schedule: Q01DX005 (ip), vehicle: water 96 % of control | dose: 50.0 mg/kg/injection, schedule: Q01DX005 (ip), vehicle: water 97 % of control | dose: 100.0 mg/kg/injection, schedule: Q01DX005 (ip), vehicle: water 96 % of control | dose: 200.0 mg/kg/injection, schedule: Q01DX005 (ip), vehicle: water 92 % of control

COCc1nnc2nc[nH]c(=O)c2n1
inactive: dose: 100.0 mg/kg/injection, schedule: Q01DX001 (ip), vehicle: carboxymethylcellulose (CMC) 98 % of control | dose: 200.0 mg/kg/injection, schedule: Q01DX001 (ip), vehicle: carboxymethylcellulose (CMC) 101 % of control

O=C(CC(O)(C(F)(F)F)C(F)(F)F)c1ccccc1Cl
inactive: [4] 100 % of control | [5] 115 % of control | [6] 107 % of control

c1ccc([CH2][Pb]([c]2ccccc2)([c]2ccccc2)[c]2ccccc2)cc1
inactive: [7] 100 % of control | [8] 97 % of control | [9] 91 % of control

CNNCCC(=O)NC(C)C
inactive: dose: 25.0 mg/kg/injection, schedule: Q04DX003 (ip), vehicle: saline 106 % of control | dose: 50.0 mg/kg/injection, schedule: Q04DX003 (ip), vehicle: saline 103 % of control | [3] 101 % of control | dose: 200.0 mg/kg/injection, schedule: Q04DX003 (ip), vehicle: saline 91 % of control

CC(=O)Nc1cccc(OCOc2ccc([N+](=O)[O-])cc2)c1
inactive: [10] 90 % of control | [11] 110 % of control | [12] 97 % of control

CCN(CC)C(=S)N1C(=O)C2C3CCC(O3)C2C1=O (stereo unspecified)
inactive: dose: 25.0 mg/kg/injection, schedule: Q04DX002 (ip), vehicle: saline with Tween-80 93 % of control

COc1ccc(NC(=O)CC(C)=O)cc1
inactive: [4] 97 % of control | [5] 103 % of control | [6] 100 % of control

Br/C=C(\Br)C[N+]12CN3CN(CN(C3)C1)C2
inactive: dose: 25.0 mg/kg/injection, schedule: Q01DX009 (ip), vehicle: saline with Tween-80 107 % of control | dose: 50.0 mg/kg/injection, schedule: Q01DX009 (ip), vehicle: saline with Tween-80 105 % of control | [4] 104 % of control

CCCCS(=O)(=O)F
inactive: dose: 25.0 mg/kg/injection, schedule: Q04DX002 (ip), vehicle: saline 96 % of control | dose: 50.0 mg/kg/injection, schedule: Q04DX002 (ip), vehicle: saline 101 % of control

Cc1ccc(C(=O)C(F)F)cc1
inactive: dose: 50.0 mg/kg/injection, schedule: Q01DX001 (ip), vehicle: saline with Tween-80 100 % of control | dose: 100.0 mg/kg/injection, schedule: Q01DX001 (ip), vehicle: saline with Tween-80 101 % of control | dose: 200.0 mg/kg/injection, schedule: Q01DX001 (ip), vehicle: saline with Tween-80 101 % of control

CCC1(CC)NC(=O)N(CCOS(C)(=O)=O)C1=O
inactive: dose: 50.0 mg/kg/injection, schedule: Q01DX001 (ip), vehicle: Klucel (hydroxypropylcellulose) (HPC) 110 % of control | [10] 93 % of control | [11] 93 % of control

c1ccc([P+](c2ccccc2)(c2ccccc2)c2ccccc2)cc1
inactive: dose: 0.63 mg/kg/injection, schedule: Q01DX009 (ip), vehicle: saline 108 % of control | dose: 1.25 mg/kg/injection, schedule: Q01DX009 (ip), vehicle: saline 111 % of control | dose: 2.5 mg/kg/injection, schedule: Q01DX009 (ip), vehicle: saline 117 % of control | dose: 5.0 mg/kg/injection, schedule: Q01DX009 (ip), vehicle: saline 122 % of control

Cc1ccccc1N
inactive: [4] 102 % of control | [5] 107 % of control

CCCCCC(Br)C(Br)CC(Br)C(Br)CC(Br)C(Br)CCCCC(=O)O (stereo unspecified)
inactive: [10] 101 % of control | [11] 96 % of control | [12] 107 % of control

CC(=O)Nc1ccc(C(=O)O)cc1
inactive: [7] 96 % of control | [8] 98 % of control | [9] 100 % of control

O=C(O)c1ccccc1NCc1ccccc1
inactive: [7] 100 % of control | [8] 96 % of control | [9] 87 % of control

CCOC(=O)N[C@H]1CCc2cc(OC)c(OC)c(OC)c2-c2ccc(SC)c(=O)cc21
inactive: dose: 0.38 mg/kg/injection, schedule: Q01DX009 (ip), vehicle: other 103 % of control | dose: 0.75 mg/kg/injection, schedule: Q01DX009 (ip), vehicle: other 108 % of control | dose: 1.5 mg/kg/injection, schedule: Q01DX009 (ip), vehicle: other 114 % of control

CCOC(=O)c1nc(SC)n(C)c1C(=O)OCC
inactive: [1] 94 % of control | [2] 105 % of control

NC(CC(=O)c1ccccc1)C(=O)O (stereo unspecified)
inactive: dose: 100.0 mg/kg/injection, schedule: Q01DX001 (ip), vehicle: saline 98 % of control | dose: 200.0 mg/kg/injection, schedule: Q01DX001 (ip), vehicle: saline 93 % of control | dose: 400.0 mg/kg/injection, schedule: Q01DX001 (ip), vehicle: saline 90 % of control

O=C(Oc1c(Cl)c(Cl)c(Cl)c(Cl)c1Cl)c1ccc([N+](=O)[O-])cc1
inactive: [4] 101 % of control | [5] 97 % of control | [6] 95 % of control

COc1ccc2c(c1)c(C#N)cc[n+]2C
inactive: dose: 6.25 mg/kg/injection, schedule: Q01DX009 (ip), vehicle: saline with Tween-80 100 % of control | dose: 12.5 mg/kg/injection, schedule: Q01DX009 (ip), vehicle: saline with Tween-80 110 % of control | dose: 12.5 mg/kg/injection, schedule: Q04DX003 (ip), vehicle: saline with Tween-80 100 % of control | dose: 25.0 mg/kg/injection, schedule: Q04DX003 (ip), vehicle: saline with Tween-80 91 % of control
